Test results as given in article PMC9033093, “Antiplasmodial Activity of Vachellia xanthophloea (Benth.) P.J.H. Hurter (African Fever Tree) and Its Constituents” (Pharmaceuticals, 2022).
Values joined by “and” are separate entries in the source; they are usually repeats but may differ in a detail not shown here. Equal values may be shown once. Read-outs that look alike come from different tables or passages of the source.

Legend:
[1] = tested on: Plasmodium falciparum 3D7 clone; assay: In vitro antiplasmodial activity, parasite lactate dehydrogenase (pLDH) assay; details: for viability at 10 µg/mL: 3D7, read-out: Viability % ± SD at 10 μg/mL; for viability at 50 µg/mL: 3D7, read-out: Viability % ± SD at 50 μg/mL
Procedure: Malaria parasites (Plasmodium falciparum 3D7 clone) were maintained in an RPMI 1640 medium containing 2 mM L-glutamine and 25 mM Hepes (Lonza). The medium was further supplemented with 5% Albumax II, 20 mM glucose, 0.65 mM hypoxanthine, 60 µg/mL gentamycin, and 2–4% haematocrit human red blood cells. The parasites were cultured at 37 °C under an atmosphere of 5% CO2, 5% O2, and 90% N2 in a sealed T75 culture flask.
For the antiplasmodial activity, the extracts and isolated compounds were first tested at 50 µg/mL and 10 µg/mL in duplicate experiments. IC50 values determined from the dose-response curves were evaluated for the compounds only showing < 50% viability without cytotoxicity at 10 µg/mL. For the IC50 screening, a range of concentrations of the extracts and compounds starting from 100 µg/mL and extended by 3-fold serial dilution were tested in triplicate and standard deviations (SD) were derived where applicable. The parasite viability was determined by measuring the activity of parasite lactate dehydrogenase (pLDH) as described by Makler et al.. Serial dilutions of the extracts and compounds were added to the in vitro cultures of P. falciparum (3D7 clone) in 96-well plates (1% haematocrit, 2% parasitaemia) and incubated for 48 h. To 125 µL solutions containing a mixture of Malstat (0.18 M lactic acid, 0.13 mM 3-acetylpyridine adenine dinucleotide, 0.16% Triton X-100, and 44 mM Tris, pH 9) and NBT/PES (0.39 mM nitro blue tetrazolium and 0.05 mM phenazine ethosulfate), 20 µL of the incubated culture was then added in a fresh 96-well plate. […] The % parasite viability, as indicated by the pLDH activity in the treated wells compared with the untreated controls, was calculated from the absorbance values for each compound/extract. The parasitised RBCs in the absence of test compounds/drug were taken as the untreated control with 100% viability.

[2] = In vitro cytotoxicity, resazurin assay; format: cell-based, human; details: human, 24 h; for viability at 24 h, 10 µg/mL: HeLa cell viability at 10 µg/mL, read-out: Viability % ± SD at 10 μg/mL; for viability at 24 h, 50 µg/mL: HeLa cell viability at 50 µg/mL, read-out: Viability % ± SD at 50 μg/mL
Procedure: (§1) The cytotoxicity of the compounds/extracts against HeLa (human cervix adenocarcinoma) cells (Cellonex, South Africa) was evaluated by plating the cells at a density of 2 × 10^4 cells per well in a DMEM medium supplemented with 10% foetal bovine serum and penicillin/streptomycin/amphotericin B antibiotics in 96-well plates. After incubating for 24 h at 37 °C in a humidified 5% CO2 incubator, the test samples were added at a final concentration of 50 µg/mL or 10 µg/mL to the cells in triplicate wells (final volume per well was 200 µL) and further incubated or 24 h. Subsequently, a 20 µL resazurin stock solution (0.6 mM resazurin in phosphate-buffered saline) was added to each well and, after a 4 h incubation, the fluorescence (Exc560/Emm590) was measured on a Spectramax M3 plate reader. The percentage cell viability in the treated wells relative to the wells containing the untreated control cells was calculated from the fluorescence values after subtracting the background readings obtained from the empty wells. Emetine was used as the positive control.

[3] = tested on: HeLa (human cervix adenocarcinoma) cells; assay: In vitro cytotoxicity, resazurin assay; format: cell-based; details: for IC50: Homo sapiens, HeLa, positive control
Procedure: as §1

P. falciparum = details: cited from earlier work

Molecule `COc1c(-c2ccc(O)c(O)c2)oc2cc(O)cc(O)c2c1=O` [3-O-Methylquercetin (4), 3-O-methylquercetin] has a viability at 10 µg/mL [1] of 82.9 ± 3%, a viability at 50 µg/mL [1] of 21.9 ± 1.5% and a viability at 24 h, 10 µg/mL ([2]; HeLa cells) of 57.9 ± 5.2%. For the same molecule, the viability at 24 h, 50 µg/mL ([2]; HeLa cells) was 4.5 ± 0.1%.

In the case of `CCN(CC)CCCC(C)Nc1ccnc2cc(Cl)ccc12` (stereo not shown) [Chloroquine, reference compound], the IC50 ([1]; 3D7, 48 h) is reported as 14 nM and the IC50 ([1]; 3D7, read-out: IC50 values ranged) is reported as 10 to 50 nM.

For `O=C1c2c(O)cc(O)cc2O[C@H](c2ccc(O)c(O)c2)[C@H]1O` [Dihydroquercetin (6), dihydroquercetin], the IC50 ([1]; 3D7, 48 h) was 27.6 µg/mL and 90.7 µM.

Molecule `CC[C@H]1CN2CCc3cc(OC)c(OC)cc3[C@@H]2C[C@@H]1C[C@H]1NCCc2cc(OC)c(OC)cc21` [Emetine, reference compound] has an IC50 ([3]; printed in the 10 µg/mL column) of 40 nM and an IC50 ([3]; printed in the 50 µg/mL column) of 33 nM.

For `O=c1c(O)c(-c2ccc(O)cc2)oc2cc(O)cc(O)c12` [Kaempferol (10), kaempferol], the IC50 ([1]; 3D7, 48 h) is listed as 25 µg/mL and 87.3 µM and the “antiplasmodial activity of common dietary flavonoids (reported)” value (from here on “antiplasmodial activity … (reported)”) (P. falciparum) is listed as “moderate to weak antiplasmodial activity”.

With `COC(=O)c1cc(O)c(O)c(O)c1` [Methyl gallate (9), methyl gallate] the IC50 ([1]; 3D7, 48 h) was 1.2 µg/mL and 6.52 µM, the viability at 10 µg/mL [1] was 26.9 ± 0.7% and the viability at 50 µg/mL [1] was 17.7 ± 1.5%. For the same molecule, the viability at 24 h, 10 µg/mL [2] was 68%, the viability at 24 h, 50 µg/mL [2] was 2 ± 0.2% and the “Viability % ± SD at 10 μg/mL” value ([3]; HeLa cell viability at 10 µg/mL, 24 h) was 68.6 ± 2.0%. The “antiplasmodial activity and selectivity (reported by other investigators)” value (P. falciparum) was “good selective antiplasmodial activity” and the combination with quinine (P. falciparum) was “act in synergy with quinine”.

In the case of `O=c1cc(-c2ccc(O)cc2)oc2cc(O)cc(O)c12` [apigenin], the “antiplasmodial activity … (reported)” value (P. falciparum) is listed as “moderate to weak antiplasmodial activity”.

In the case of `Oc1cc(O)c2c(c1)O[C@H](c1cc(O)c(O)c(O)c1)[C@@H](O)C2` [gallocatechin (8), gallocatechin], the “activity against P. falciparum (previously reported)” value (P. falciparum) is given as “inactive”.

In the case of `C[C@]1(O)CC[C@H]2[C@@H]3CCC4=CC(=O)CC[C@@H]4[C@H]3CC[C@@]21C` [lutenin, reference compound], the “antiplasmodial activity … (reported)” value (P. falciparum) is listed as “moderate to weak antiplasmodial activity”.

For `O=c1c(O)c(-c2cc(O)c(O)c(O)c2)oc2cc(O)cc(O)c12` [myricetin, reference compound], the “antiplasmodial activity … (reported)” value (P. falciparum) is listed as “moderate to weak antiplasmodial activity”.

In the case of `O=c1c(O)c(-c2ccc(O)c(O)c2)oc2cc(O)cc(O)c12` [quercetin], the “antiplasmodial activity … (reported)” value (P. falciparum) is listed as “moderate to weak antiplasmodial activity”.

In the case of pinoresinol [Pinoresinol (12)], the “activity against P. falciparum (previously reported)” value (P. falciparum) is listed as “inactive”.
